From patent publication US12466821B2 (Novartis AG, priority 2018, dated 2025)

Assays:
Type in all cases: cell-based
[1] = tested on: KOS strain of HSV-1 virus; assay: HSV-1 qPCR assay (cellular herpesvirus replication); conditions: Human alphaherpesvirus 1; NN-NHDF cells, qPCR after 24 hrs; n>3, value (+/- spread)
Experimental: (§1) For all viral assays, 10 mM DMSO stock compound solutions were serially diluted in DMSO at 3.16 fold dilutions in 96-well clear round bottom plates. Compounds were then diluted in assay media at 1:20 and subsequently 10 μL of these dilutions were added to cells for final compound concentrations ranging either from 0.0159 μM to 50 μM in 0.5% DMSO/assay media, or from 0.00318 to 10 μM in 0.5% DMSO/assay media.
HSV-1 qPCR assay: The assay uses KOS strain of HSV-1 virus (ATCC cat #VR-1493). Viral replication in the presence or absence of compounds was measured by qPCR according to the following procedure: NN-NHDF cells were plated at 9,000 cells/well in 96-well white-wall clear bottom plates in 80 μL/well of assay media (same as CMV) and left at room temperature in laminar flow hood for 20 mins followed by incubation at 37° C. […]
(§2) qPCR reactions were carried out in a total reaction volume of 20 μL, using the QuantiFast® Multiplex PCR kit (Qiagen cat #204656). Eighteen μL of qPCR master mix (10 μL of 2× QuantiFast® Multiplex PCR Master Mix, 1 μL of 20× Primer/Probe Mix specific to housekeeping gene, 1 μL of 20× Primer/Probe Mix specific to viral gene, 6 μL of H2O) was distributed into each well of a 384 well plate. […]
(§3) Relative quantification was calculated with the ΔΔCT Method, and then converted into percent inhibitions. […] EC50 values were calculated using XLFit Dose Response One Site Model 205.

[2] = tested on: EBV (SNU-719 gastric carcinoma cell line latently infected with EBV); assay: EBV qPCR assay (cellular herpesvirus replication); conditions: human gammaherpesvirus 4; SNU-719 cells, TPA/NaB reactivation, qPCR after 72 hrs; n>3, value (+/- spread)
Experimental: as §1
EBV qPCR assay: The assay uses the SNU-719 gastric carcinoma cell line which is latently infected with EBV. Upon reactivation with chemical reagents, EBV DNA copy number was measured by qPCR. Viral replication in the presence or absence of compounds was measured according to the following procedure: SNU-719 cells were plated at 2×10^4 cells/well in 96-well clear bottom plates, black in 80 μL/well of assay media: 2% FBS in RPMI 1640 (ATCC cat # 30-2001). […]
as §2
Relative quantification was calculated with the ΔΔCT Method, and then converted into percent inhibitions. […]

VZV Ellen strain = assay: VZV qPCR assay (cellular herpesvirus replication); conditions: Human alphaherpesvirus 3, MRC5, 48 h; MRC-5 cells, qPCR after two days; n>3, value (+/- spread)
Experimental: as §1
VZV qPCR assay: The assay uses co-infection with VZV Ellen strain-infected MRC-5 cells (ATCC cat #VR-1367). Viral replication in the presence or absence of compounds was measured by qPCR according to the following procedure: 12,000 uninfected MRC-5 cells were mixed with VZV-infected MRC-5 cells at a ratio of 1 to 10 infected to uninfected cells, in 96-well white-wall clear bottom plates in 90 μL/well of assay media: 4% FBS in EMEM (ATCC cat #30-2003). […] The chosen ratio of infected to uninfected cells gave approximately 3% VZV-positive cells at 6 hours post co-culturing, as detected by immunofluorescent staining of VZV Immediate Early 62 gene. […]
qPCR reactions were carried out in a total reaction volume of 20 μL, using the QuantiFast® Multiplex PCR kit (Qiagen cat #204656). […]
as §3

## N#Cc1ccc(CNC(=O)c2ccc3n(c2=O)CCN(CC2(S(=O)(=O)C4CC4)CC2)C3=O)cc1 [Example 1, N-(4-cyanobenzyl)-2-((1-(cyclopropylsulfonyl)cyclopropyl)methyl)-1,6-dioxo-2,3,4,6-tetrahydro-1H-pyrido[1,2-a]pyrazine-7-carboxamide]
[1]
  EC50: 32 nM
[2]
  EC50: 12 nM
VZV Ellen strain
  EC50: 20 nM
